# Laboratory results taken from patent publication US20220378791A1, “JAK1 INHIBITORS FOR THE TREATMENT OF MYELODYSPLASTIC SYNDROMES” (Incyte Corporation, priority 2014, published 2022).
# Columns and labels:
# [1] = target: T1, human JAK1 (a.a. 837-1142) (Homo sapiens, UniProt P23458); assay: In vitro JAK kinase assay (HTRF), JAK1; format: biochemical; details: 1 mM ATP
# T1 construct: human JAK1 (a.a. 837-1142); His tag (N); made in house; host or cells: insect cells (baculovirus)
# Procedure: Compounds herein were tested for inhibitory activity of JAK targets according to the following in vitro assay described in Park et al., Analytical Biochemistry 1999, 269, 94-104. The catalytic domains of human JAK1 (a.a. 837-1142), JAK2 (a.a. 828-1132) and JAK3 (a.a. 781-1124) with an N-terminal His tag were expressed using baculovirus in insect cells and purified. The catalytic activity of JAK1, JAK2 or JAK3 was assayed by measuring the phosphorylation of a biotinylated peptide. The phosphorylated peptide was detected by homogenous time resolved fluorescence (HTRF). […] Reactions were carried out at room temperature for 1 hour and then stopped with 20 μL 45 mM EDTA, 300 nM SA-APC, 6 nM Eu-Py20 in assay buffer (Perkin Elmer, Boston, Mass.). Binding to the Europium labeled antibody took place for 40 minutes and HTRF signal was measured on a Fusion plate reader (Perkin Elmer, Boston, Mass.).
# [2] = target: T2, human JAK2 (a.a. 828-1132) (Homo sapiens, UniProt O60674); assay: In vitro JAK kinase assay (HTRF), JAK2; format: biochemical; details: IC50 ratio, selectivity for JAK1 over JAK2, 1 mM ATP
# T2 construct: JAK2 (a.a. 828-1132); His tag (N); made in house; host or cells: insect cells (baculovirus)
# T2 sequence (O60674 828-1132): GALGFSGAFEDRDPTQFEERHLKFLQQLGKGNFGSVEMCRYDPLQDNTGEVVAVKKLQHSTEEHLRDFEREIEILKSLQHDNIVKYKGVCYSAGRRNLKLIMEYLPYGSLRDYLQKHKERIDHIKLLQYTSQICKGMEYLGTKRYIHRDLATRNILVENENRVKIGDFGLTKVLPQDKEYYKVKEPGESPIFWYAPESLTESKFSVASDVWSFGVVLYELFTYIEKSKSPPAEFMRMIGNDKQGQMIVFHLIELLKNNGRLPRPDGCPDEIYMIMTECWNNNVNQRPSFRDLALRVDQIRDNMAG
# Procedure: Compounds herein were tested for inhibitory activity of JAK targets according to the following in vitro assay described in Park et al., Analytical Biochemistry 1999, 269, 94-104. The catalytic domains of human JAK1 (a.a. 837-1142), JAK2 (a.a. 828-1132) and JAK3 (a.a. 781-1124) with an N-terminal His tag were expressed using baculovirus in insect cells and purified. The catalytic activity of JAK1, JAK2 or JAK3 was assayed by measuring the phosphorylation of a biotinylated peptide. The phosphorylated peptide was detected by homogenous time resolved fluorescence (HTRF). […] Reactions were carried out at room temperature for 1 hour and then stopped with 20 μL 45 mM EDTA, 300 nM SA-APC, 6 nM Eu-Py20 in assay buffer (Perkin Elmer, Boston, Mass.). Binding to the Europium labeled antibody took place for 40 minutes and HTRF signal was measured on a Fusion plate reader (Perkin Elmer, Boston, Mass.). See Table 2 for data for compounds of the examples as tested by the assay of Example A at 1 mM ATP.
# MDS patients [3] = details: 83 patients enrolled, 51 completed 12 weeks of therapy; cited from earlier work
# MDS patients [4] = details: study of 14 MDS patients; cited from earlier work
# T1 sequence (P23458 849-1154): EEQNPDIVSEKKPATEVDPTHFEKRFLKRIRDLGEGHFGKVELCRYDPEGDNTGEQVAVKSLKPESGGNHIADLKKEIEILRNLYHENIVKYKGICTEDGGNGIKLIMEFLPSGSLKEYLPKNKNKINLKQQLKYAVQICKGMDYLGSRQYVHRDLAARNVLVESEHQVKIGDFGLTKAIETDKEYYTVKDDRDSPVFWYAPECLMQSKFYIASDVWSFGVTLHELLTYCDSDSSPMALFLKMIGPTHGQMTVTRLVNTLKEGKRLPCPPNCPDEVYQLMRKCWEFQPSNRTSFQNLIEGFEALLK
IC50 [1],JAK2/JAK1 [2],Molecule,other results
< 10 nM,>10,"C[C@H](O)CNCc1cc(OC2CCN([C@H]3C[C@](CC#N)(n4cc(-c5ncnc6[nH]ccc56)cn4)C3)CC2)nc(C(F)(F)F)c1 [Example 23, {trans-3-(4-{[4-({[(2S)-2-hydroxypropyl]amino}methyl)-6-(trifluoromethyl)pyridin-2-yl]oxy}piperidin-1-yl)-1-[4-(7H-pyrrolo[2,3-d]pyrimidin-4-yl)-1H-pyrazol-1-yl]cyclobutyl}acetonitrile]",
< 10 nM,>10,"N#CC[C@]1(n2cc(-c3ncnc4[nH]ccc34)cn2)C[C@H](N2CCC(Oc3cc(CCO)cc(C(F)(F)F)n3)CC2)C1 [Example 24, {trans-3-(4-{[4-(2-hydroxyethyl)-6-(trifluoromethyl)pyridin-2-yl]oxy}piperidin-1-yl)-1-[4-(7H-pyrrolo[2,3-d]pyrimidin-4-yl)-1H-pyrazol-1-yl]cyclobutyl}acetonitrile]",
,,O=C1CCC(N2C(=O)c3ccccc3C2=O)C(=O)N1 (centres unmarked) [thalidomide],patients showed hematologic improvement (MDS patients [3]): 16 patients; previously transfusion-dependent patients becoming transfusion independent (MDS patients [3]): 10 patients
,,etanercept,erythroid hematologic improvement (MDS patients [4]): 25 % of patients; improvement in platelet counts and ANC (MDS patients [4]): 12.5 % of evaluable patients
